Non-standard residues stand in square brackets, D forms with d. Residues, ends and D or L forms follow the SMILES beside them. Groups on a side chain read outwards from the residue. *: point of attachment. X3 = CC(C)CCC[C@@H](C)[C@H]1CCC2C3CC=C4C[C@@H](OC(=O)*)CC[C@]4(C)C3CC[C@@]21C; Benzenesulfonyl(4-OMe) = COc1ccc(S(=O)(=O)*)cc1; Phe(3-F) = N[C@@H](Cc1cccc(F)c1)C(=O)O; Ahx = NCCCCCC(=O)O
How the values were obtained:
β-catenin in MCF7 cells = experiment: β-Catenin in cell western; assay type: cell-based
Method: β-Catenin in Cell Western
Plating of the MCF7 cells onto 96 well plates—this step is carried out 1 day before the treatment of the cells to allow the cells to adhere well to the tissue culture plastic. MCF7 cells to be used for seeding should be less than 100% confluent in a 10 cm dish. Add 3 ml of RT trypsin/EDTA to the cells. Incubate at 37° C./5% CO2 for a few minutes until the cells easily come away from the plastic by gentle swirling. Add 7 ml of media to the cells. Wash the bottom of the plate gently with the 10 ml to ensure all cells are captured and dispense into a 15 ml falcon. Add 1001l of the cells to 1001l of Trypan blue and add to haemocytometer to count the number of cells present. Make up approx 10 ml of cells in media at 2×10^4 cells/1001l (well) with fresh media. Add this correct seeding density to a 10 cm dish. Dispense 1001l of cells/well into a 96 well plate without using the outside wells. Incubate at 37° C./5% CO2 overnight
Treatment of MCF7 cells with compound of interest (COI) and controls—Put OptiMEM into 37° C. water bath to warm. Add 4 ul of 50 mM compound X for testing to eppendorf—this is tube 1. Add 2 al DMSO to 6 tubes marked tube 2-7. Take 21 al of 50 mM (COI) and add to 2 al of DMSO in tube 2 and pipette up and down to mix. Take 21 al from tube 2 and add to 2 μl DMSO in next tube and mix. […]

MCF7:GFP-PDCD4^S71A/S76A = experiment: Fluorescence reporter assay for PDCD4 accumulation, mutant; assay type: cell-based; settings: PDCD4 mutated to eliminate PDCD4-βTrCP interaction
Method: Fluorescence Reporter Assay for PDCD4 Accumulation
This assay uses two stable cell lines expressing PDCD4 fused to a GFP tag.
The two stable cell lines MCF7:GFP-PDCD4^WT and MCF7:GFP-PDCD4^S71A/S76Awere grown in 10 ml DMEM+10% FBS and 1% Pen/Strep supplemented with 2 mg/ml Geneticin at 37° C./5% CO2. These cell lines were nucleofected as described above except for the additional supplementation of all media with 2 mg/ml Geneticin.
Fluorescent Reporter Assay
The cells were fixed by removing the growth media and adding 3.7% Formaldehyde in PBS to the cells. The cells were then incubated at RT for 20 mins and the plates washed 3× in PBS.
DRAQ5 DNA stain was added to the cells in PBS at a concentration of 1:10000 and incubated at RT for 1 hour protecting from light. The plate was washed 3× in PBS and read on the Perkin Elmer OPERA platform using the nuclei counting algorithm F in both the 488 nm channel (GFP) and 640 nm channel (DRAQ5). DMSO was used as a negative control and 10 μM MG132 was used as a positive control. Error bars represent standard deviation from 6 replicates. The data are expressed as percentage activity with DMSO (WT)=0% and 10 μM MG132 (WT)=100% activity.
This confirms that the stabilisation resulting from the compounds is dependent on the βTrCP/PDCD4 interaction and is not due to another mechanism such as a global increase in protein production.

**Q.** Which results are given for `COc1ccc(S(=O)(=O)N[C@H](CC(=O)O)C(=O)N[C@@H](CCC(=O)O)C(=O)NCC(=O)N[C@@H](Cc2cccc(F)c2)C(=O)N[C@@H](Cc2c[nH]c3ccccc23)C(=O)N[C@@H](CCC(=O)O)C(=O)NCCCCCC(=O)N[C@@H](CCCCNC(=O)CCCCCNC(=O)O[C@H]2CC[C@@]3(C)C(=CCC4C3CC[C@@]3(C)C4CC[C@@H]3[C@H](C)CCCC(C)C)C2)C(N)=O)cc1` (some centres unmarked) [UBP036, 4-(MeO)PhSO2-dEGF(3F)WE-Ahx-K(Ahx-Chol)-NH2] ({Benzenesulfonyl(4-OMe)}-[dD]EG[Phe(3-F)]WE[Ahx]K([Ahx-X3])-NH2)?
**A.** accumulation of β-catenin, in cell western (β-catenin in MCF7 cells): accumulation of β-catenin; accumulation of GFP-PDCD4 Mut, fluorescent reporter assay (MCF7:GFP-PDCD4^S71A/S76A): no accumulation of PDCD4

Reference: patent US20190106460A1, “BINDING INHIBITORS OF THE BETA. TRANSDUCIN REPEAT-CONTAINING PROTEIN” (priority 2011, published 2019)
